According to patent publication US20190002492A1, “DERIVATIVES OF ALLOPR[…] OF EPIALLOPR[…] USES THEREOF FOR TREATING A NEUROPATHOLOGICAL CONDITION” (UNIVERSITE DE STRASBOURG, priority 2011, published 2019):
Entries after “also recorded” stand apart in the source; their conditions may differ. Counter-ions that a name gives are not always drawn.

Columns and labels:
[1] = test system: SH-SY5Y human neuroblastomas; assay: MTT assay of cell viability and density: effect on cell proliferation; format: cell-based; set-up: key to Effect on cell proliferation (neural proliferative effect): −: no effect; +: low effect; ++: high effect; +++: very high effect; settings: SH-SY5Y cultures
Protocol: (§1) The cellular model used to carry out the in vitro experiments is a line of human neuroblastomas called line SH-SY5Y.
(§2) The human neuroblastoma is a cultivated at 37° C. in a humidity saturated atmosphere, under 5% CO2 in a culture medium formed by DMEM with an added 10% (v/v) fetal calf serum, 5% (v/v) horse serum, 2 mM glutamax and 1% (v/v) of the penicillin/streptomycin mixture.
The cellular viability and the density (or number of SH-SY5Y cells/cm^2) were determined using the MTT reduction assay. The MTT technique is a colorimetric test that measures the reduction of the tetrazolium salt (3-[4,5-dimethylthiazol-2-yl]-2,5-diphenyl tetrazolium bromide) in formazan by the succinate dehydrogenase present in the mitochondria of the living cells. The formazan forms blue crystals. Thus, after solubilization of the crystals, the measurement of the absorbance at 595 nm makes it possible to obtain absorbency values directly proportional to the number of viable cells and the cell density in the culture boxes.
The effects of derivatives BR053, BR338, BR297 and BR351 on cell proliferation were evaluated by comparing the number of viable cells and the cell density in the control culture boxes, treated only with the culture medium described in paragraph A1 above, and the culture boxes exposed to the culture medium with the added BR053, BR338, BR297 or BR351 derivatives.

[2] = test system: SH-SY5Y human neuroblastomas; assay: Neuroprotection against cell death caused by oxidizing stress (H2O2), MTT readout; format: cell-based; set-up: key to Neuroprotective effect against cell death caused by oxidizing stress: −: no effect; +: low effect; ++: high effect; +++: very high effect; settings: H2O2 1 mM; for Neuroprotective effect against cell death caused by oxidizing stress: SH-SY5Y cultures, 24 or 48 hours, MTT; for Protection of human neuroblastomas from cell death caused by H2O2 (in words): SH-SY5Y
Protocol: as §1, §2
The human neuroblastomas were incubated with the culture medium alone or containing the chief inducing agent of oxidizing stress, hydrogen peroxide (H2O2), at various concentrations in order to determine the concentrations of H2O2 and the incubation times causing the death of a significant percentage of the cells. The neuroprotective properties of the BR053, BR338, BR297 and BR351 derivatives were determined by pretreating the SH-SY5Y cells with the culture medium alone or respectively containing the BR053, BR338, BR297 or BR351 derivative. After pretreatment, each of these categories of cells was integrated for 24 hours or 48 hours with the following solutions: (i) culture medium; (ii) culture medium containing only the BR053, BR338, BR297 or BR351 derivative; (iii) culture medium containing only H2O2 at a concentration of 1 mM, which causes a high percentage of cell death; (iv) culture medium containing both H2O2 (1 mM) and one of the BR053, BR338, BR297 or BR351 derivatives.
10 μl of a stock solution of tetrazolium, abbreviated MTT, at 3.6 mM was added in each well and the incubation continued in darkness for 5 h at 37° C. After cell lysis, spectrophotometer measurements at 595 nm were carried out to determine the survival and cell density under each of the conditions described above.

[3] = test system: type A GABA channel receptors (GABAa-R); assay: Whole-cell patch-clamp, effect on GABA-induced ionic current; format: cell-based, human; settings: 0.25 μM compound, GABA 10 μM in the recording pipette; for Effect on the type A GABA receptor channel or GABAa-R: whole cell patch-clamp
Protocol: The studies were conducted using an electrophysiological approach. The activity of the cells was recorded using the patch-clamp technique in its so-called whole cell configuration. The mediums used for the recordings have the following composition (in mM): NaCl ([…]), KCl (2), CaCl2 (1), MgCl2 (2), HEPES (10) for the medium bathing the cells and NaCl (132), KCl (2), CaCl2 (1), MgCl2 (2), TEA (15), HEPES (10) for the recording pipette, the pH was adjusted in both cases to 7.4 with NaOH. The GABA 10 μM was added into the recording pipette.
After producing a “gigaseal” (Planar patch clamp) between the cellular membrane and the tip of a pipette with an electrical resistance comprised between 4 and 7 MO, the ionic currents were measured using a patch-clamp amplifier (Axopatch B200, Axon Instruments, CA). The acquisition of the signal (acquisition frequency of 10 kHz) was done using an interface card (Digidata 1322A, Axon Instruments, CA) and the pClamp 8 software (Axons Instruments, CA).
The allopregnanolone and the BR053, BR338, BR297 and BR351 derivatives were solubilized in pure ethanol before being diluted in the medium to the desired concentration. The dilution factor was at least equal to 2×10^4, which makes the final concentration of ethanol in the recording solution remain below […] (a concentration not affecting the activity of the GABAa receptor).
Depending on the experiments, the allopregnanolone or the BR053, BR338, BR297 or BR351 derivatives, at the concentration of 0.25 μM, were either added in the recording pipette at the same time as the GABA, or applied to the cell by perfusion.
The application was done by gravity through a multi-path perfusion system made up of glass tubes each having an inner diameter of 1 mm. The selected path was placed across from the recorded cell at approximately 100 μm. The solution was changed by calibrated rotation of the tubes using a stepping motor thus placing the new selected path across from the cell. Synchronously with that rotation, the solenoid valve controlling the flow of the selected path was also opened and the preceding one closed.

[4] = test system: Sprague-Dawley rats; assay: Von Frey filament test, painful neuropathy caused by vincristine; format: in vivo, rat
Excerpt: (§3) Adult male Sprague-Dawley rats weighing between 250 and 300 g were used. They came from the company Janvier (le Genest St. Isle, France). The care and handling of the animals were done in accordance with the guidelines from the Council of the European Community (86/609/EC) and in accordance with the ethical rules of the International Association for the Study of Pain. The protocol used to carry out the in vivo studies was subject to examination and authorization granted to Prof. Mensah-Nyagan's team by the Alsatian Department of the Veterinary Public Health Guide for the Care and Use of Laboratory Animals (Approval number 67-186). The rats were housed under standard conditions with a photoperiod of 12 h day/12 h night, with unlimited food and water. The animals spent one acclimatization week before being integrated into the experimental protocols. Each animal was examined daily to detect any signs of deterioration of its health condition, such as dramatic weight loss, a decrease in appetite during chemotherapy and pharmacological treatment.
(§4) Vincristine sulfate (VINC), purchased from Sigma-Aldrich (St. Louis, Mo., USA), was dissolved in a physiological saline solution (NaCl 0.9%) at 0.1 mg/ml and stored at 4° C. The saline solution (NaCl 0.9%) is used as excipient. The VINC is injected daily by intraperitoneal injection (i.p.), in 2 cycles of 5 days separated by 2 days off, at a concentration of 0.1 mg/kg/day. The control animals were injected by i.p. (1 ml/kg) with the excipient using a similar protocol.
(§5) The allopregnanolone in the derivatives according to the invention (BR053 and BR297) were diluted in a hydroxypropylcellulose (HPC) solution (0.3%) used as excipient. The curative treatment with allopregnanolone, BR053 or BR297 began 3 days after the vincristine cycles. Each of these compounds (allopregnanolone, BR053 or BR297) was administered by the intraperitoneal route at a dose of 4 mg/kg at a rate of one injection every 2 days. Thus, over the total duration of the in vivo experiments (14 days), each animal received 7 injections of excipient, allopregnanolone, BR053 or BR297, based on its group, at a dose of 4 mg/kg. The animals were sacrificed 24 hours after the last behavioral test (28th day) to remove tissues that will be used for later histology and electrophysiology studies.
(§6) The mechanical nociceptive sensitivity threshold was evaluated in rats placed in individual Plexiglas boxes (30×30×25 cm) mounted on a raised mesh support thereby allowing access to the surface or arch of the back feet. The presence of allodynia (exaggerated response following a normally […] stimulation) was measured using a series of calibrated von Frey filaments (1, 2, 4, 6, 8, 10, 15, 26, 100, 180 and 300 g; Stoelting, Wood Dale, Ill., USA), which were applied on the sole of the back foot of the animal with increasing force until the filament twisted. The filament was applied for a period of 1 to 2 seconds and the procedure was repeated 5 times at 4-5 second intervals. The withdrawal threshold of the foot was calculated by taking the average of […] repeated stimuli (in grams) that caused a reflex to withdraw the foot. Only vigorous and fast withdrawals of the foot were considered positive. In the experiments, the naïve animals never responded to the 4 g filament and responded 25-30% of the time to the 15 g filament.

[5] = test system: Sprague-Dawley rats; assay: Acetone test of thermal allodynia to cold, painful neuropathy caused by vincristine; format: in vivo, rat
Excerpt: as §3, §4, §5
The thermal nociceptive sensitivity threshold to cold was measured in rats placed in individual Plexiglas boxes (30×30×25 cm) mounted on a raised mesh support so as to allow access to the sole of the animal's foot. […] Six measurements (3 per foot) were performed with a latency of 5 minutes between each stimulation. The average latency for withdrawal of the feet (in seconds) was calculated by averaging 6 measurements at each studied point in time. […]

[6] = test system: Sprague-Dawley rats; assay: Von Frey mechanical nociceptive sensitivity threshold in healthy animals not treated with vincristine; format: in vivo, rat; settings: 4 mg/kg every 2 days for 2 weeks
Excerpt: as §3, §5
as §6, with “In the experiments, the naïve animals never responded to the 4 g filament and responded 25-30% of the time to the 15 g filament.” left out

[7] = rats with vincristine neuropathy, 4 mg/kg i.p. every 2 days for 2 weeks

Compound	Effect on cell proliferation (neural proliferative effect) [1]	Effect on the proliferation of human neuroblastomas (in words) [1]	Neuroprotective effect against cell death caused by oxidizing stress [2]	Protection of human neuroblastomas from cell death caused by H2O2 (in words) [2]	Time until desensitization of the GABAa-R channel [3]	Effect on the type A GABA receptor channel or GABAa-R [3]	Von Frey filament that causes more than 70% of responses ([4]; rats after vincristine 0.1 mg/kg/day i.p., 2 cycles of 5 days, 80 g before treatment)	Responses to the 15 g filament (mechanical hyperalgesia) ([4]; rats after vincristine chemotherapy, 30% before)	Responses to the 4 g filament (mechanical allodynia) ([4]; rats after vincristine chemotherapy, no response before treatment)	Latency for withdrawal of the foot, acetone test ([5]; rats after vincristine chemotherapy, 20 seconds before)	Effect on the type A GABA receptor channel or GABAa-R ([3]; listed as allopregnanolone)	Effect on mechanical allodynia and mechanical hyperalgesia [4, 7]	Effect on thermal allodynia to cold [5, 7]	Anti-nociceptive effect in healthy animals [6]	Mechanical nociceptive sensitivity threshold after treatment ([6]; 80 g before)
C=CCO[C@@H]1CC[C@]2(C)C3CC[C@@]4(C)C(CC[C@@H]4C(C)=O)C3CC[C@H]2C1 (stereo partly drawn) [BR351]	+++	very high effectiveness	+++	capable of protecting human neuroblastomas from the cell death	1 min	only temporarily reproduces the positive allosteric effect; also recorded: Temporary positive allosteric	–	–	–	–	–	–	–	–	–
CC[C@]1(O)C[C@H]2CN(CCc3c([nH]c4ccccc34)[C@@](C(=O)OC)(c3cc4c(cc3OC)N(C=O)[C@H]3[C@@](O)(C(=O)OC)[C@H](OC(C)=O)[C@]5(CC)C=CCN6CC[C@]43[C@@H]65)C2)C1 [vincristine, Vincristine sulfate]	–	–	–	–	–	–	20 g	~70%	more than 30%	11 s	–	–	–	–	–
CC(=O)[C@H]1CCC2C3CC[C@H]4C[C@H](O)CC[C@]4(C)C3CC(=O)[C@@]21C (stereo partly drawn) [BR338]	++	high effectiveness	+	capable of protecting human neuroblastomas from the cell death	–	Positive allosteric effect	–	–	–	–	–	–	–	–	–
CC(=O)[C@H]1CCC2C3CC[C@H]4C[C@H](O)CC[C@]4(C)C3CC[C@@]21C (stereo partly drawn) [Allopregnanolone, reference compound]	–	–	–	–	–	Positive allosteric effect	–	–	–	–	positive allosteric effect	eliminates the symptoms	eliminates the symptoms	significant anti-nociceptive effect	200 g
